From PMC6123649, “Structural basis for specific inhibition of the highly sensitive ShHTL7 receptor” (EMBO Reports, 2018)

Experiments:
AtD14 = biological target: T1, AtD14 (Arabidopsis thaliana, UniProt Q9SQR3); assay: YLG hydrolysis assay; type: biochemical
T1 construct: made in house; host or cells: E. coli BL21 (DE3)
T1 sequence (Q9SQR3 1-267): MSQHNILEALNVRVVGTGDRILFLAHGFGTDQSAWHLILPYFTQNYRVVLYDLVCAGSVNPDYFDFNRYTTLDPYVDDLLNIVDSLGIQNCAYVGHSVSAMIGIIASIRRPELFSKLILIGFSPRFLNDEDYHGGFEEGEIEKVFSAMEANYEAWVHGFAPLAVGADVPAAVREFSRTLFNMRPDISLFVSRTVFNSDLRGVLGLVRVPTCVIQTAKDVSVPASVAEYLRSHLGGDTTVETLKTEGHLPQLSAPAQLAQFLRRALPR
Description: (§1) In vitro YLG hydrolysis assays were performed using 3 μM of ShHTL7, ShHTL7‐L143Y, AtD14, and OsD14 in a reaction buffer (1× PBS) with 0.1% dimethyl sulfoxide (DMSO) in a 100 μl volume on a 96‐well black plate (Greiner). The fluorescent intensity was measured by SpectraMax i3 (Molecular Devices) using an excitation wavelength of 480 nm and a detection wavelength of 520 nm. ShHTL7, ShHTL7‐L143Y, AtD14, and OsD14 were mixed with Triton X‐100, using serial dilutions to cover the Triton X‐100 concentration range from 5 μM until 4.87 nM. Protein‐Triton mixes were pre‐incubated for 30 min. 1 μM YLG (Tokyo Chemical Industry Co. Ltd.) was then added, and the assay was incubated for 60 min. The change in fluorescence observed over the course of 1 h incubation of YLG in buffer without protein was subtracted from the data collected in the presence of protein. The resulting relative fluorescence values were analyzed. The inhibitory curves and IC50 values were plotted using GraphPad (Prism 6) four‐parameter logistic curve. The rate of YLG hydrolysis by ShHTL7 was recorded following the above method at 10‐min interval for 2 h.

OsD14 = biological target: T2, OsD14 (Oryza sativa subsp. japonica, UniProt Q10QA5); assay: YLG hydrolysis assay; type: biochemical
T2 construct: made in house; host or cells: E. coli BL21 (DE3)
T2 sequence (Q10QA5 1-318): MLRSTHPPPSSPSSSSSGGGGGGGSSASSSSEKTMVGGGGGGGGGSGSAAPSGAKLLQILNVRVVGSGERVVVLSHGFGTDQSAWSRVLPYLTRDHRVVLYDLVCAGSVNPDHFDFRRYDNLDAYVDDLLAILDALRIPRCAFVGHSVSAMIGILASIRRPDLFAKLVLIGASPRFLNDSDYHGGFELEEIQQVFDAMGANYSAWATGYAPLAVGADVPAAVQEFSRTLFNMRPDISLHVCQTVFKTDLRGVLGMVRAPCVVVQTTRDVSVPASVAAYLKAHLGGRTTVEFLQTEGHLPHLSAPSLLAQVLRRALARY
Description: as §1

ShHTL7S95C = assay: Intrinsic Triton fluorescence binding assay; parameters: species or system Striga hermonthica; conditions: inactive ShHTL7S95C; buffer with 0.005% Tween‐20; converged after 2.5 h of incubation; read-out: dissociation constant (Kd), intrinsic Triton fluorescence
Orobanche minor = test system: Orobanche minor; parameters: method as in PMID 23915294; conditions: concentrations above 0.001%; cited from earlier work
[1] = test system: ShHTL7 L143Y binding to ShMAX2; assay: GST pulldown of ShMAX2; type: biochemical, Striga hermonthica
Description: (§2) Purified GST‐ShHTL7 wt, ShHTL7 L143Y, and ShHTL7‐H246N mutants were bound to the Glutathione Sepharose 4B Beads, where Triton is used in the lysis step and in certain samples Tween‐20 was used instead of Triton. Bound proteins were incubated with 20 μM GR24 and His6‐ShMAX2 lysate for 2 h and then washed with lysis buffer for three times and then ShHTL7 wt and mutants were eluted with the addition of 20 mM reduced glutathione. Thus, eluted protein was subjected to Western blot using antibody specific to 6XHis (anti‐His).

[2] = test system: GR24‐dependent interaction of ShHTL7 with ShMAX2; assay: GST pulldown of ShMAX2; type: biochemical, Striga hermonthica; conditions: pre‐incubation of ShHTL7 with Triton; 20 μM GR24
Description: as §2

ShHTL7 [3] = biological target: T3, ShHTL7 (Striga hermonthica, UniProt A0A0M3PNA2); assay: Microscale thermophoresis (MST); type: binding; conditions: 2.5 h pre‐incubation; 0.005% Tween‐20; read-out: dissociation constant (Kd), MST
T3 sequence (A0A0M3PNA2 1-271): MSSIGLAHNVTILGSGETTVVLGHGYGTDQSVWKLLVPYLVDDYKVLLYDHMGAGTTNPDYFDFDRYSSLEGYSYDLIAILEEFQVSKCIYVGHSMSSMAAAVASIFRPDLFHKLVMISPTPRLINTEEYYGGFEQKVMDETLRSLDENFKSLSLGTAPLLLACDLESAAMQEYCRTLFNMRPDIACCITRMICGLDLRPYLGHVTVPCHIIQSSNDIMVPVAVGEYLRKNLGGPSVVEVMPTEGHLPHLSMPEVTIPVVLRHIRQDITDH
Description: ShHTL7 was N‐terminally labeled with RED dye (NT‐647) following the protocol from manufacturer (NanoTemper, Germany). Free dye was removed by passing through the Sephadex G‐25 column. Serial dilutions of unlabeled Triton X‐100, GR24, and PAA ranging from 25 μM to sub‐nanomolar range were mixed with 20 nM of NT‐647‐labeled ShHTL7 in buffer (50 mM Tris–HCl, 150 mM NaCl, 0.005% Tween‐20) and incubated for 2.5 h in the studies for Triton X‐100 and PAA except with GR24, and it was recorded after 10‐min incubation. About 10 μl of sample was loaded into premium monolith NT capillaries, and assays were carried out in a NanoTemper Monolith NT.015T. The red fluorescence was excited by a light‐emitting diode, and its emission was recorded on the focused part of capillaries. Using laser diode, a microscopic temperature gradient was created at the same location and the fluorescence depletion was measured. K d values were determined by plotting the concentrations of unlabeled ligands against the changes in fluorescent thermophoresis signal, and the data were analyzed using the NanoTemper analysis software.

ShHTL7 [4] = biological target: T3, ShHTL7; assay: Drug affinity response target stability (DARTS) assay; type: binding; conditions: 100 μM compound; proteinase K 10 μg/ml
Description: ShHTL7 and mutants were diluted to a concentration of 30 μM in 50 mM Tris–HCl pH 7.5, 150 mM NaCl, 0.005% Tween‐20, incubated with GR24 at final concentration of 100 μM for 5 min, and separately with 100 μM Triton X‐100 for 2 h. One sample was kept aside for use as an undigested control. Proteinase K (Hampton Research) was then added to ShHTL7 protein to a final protease concentration of 10 μg/ml. Reactions were incubated at room temperature for 5 min and then SDS–PAGE loading buffer was added to stop the reaction, and the samples were immediately boiled for 3 min. Equal amounts of each sample, corresponding to 10 μg of protein, were run on a 4–20% gradient polyacrylamide gel (Bio‐Rad) and analyzed by Coomassie Blue staining 32.

Triton X-100
decrease of YLG hydrolysis rate (AtD14; 5 μM Triton): 10% | effect on YLG hydrolysis activity (AtD14; Triton up to 0.5 μM): did not impact | decrease of YLG hydrolysis rate (OsD14; 5 μM Triton): 10% | effect on YLG hydrolysis activity (OsD14; Triton up to 0.5 μM): did not impact | Kd (ShHTL7S95C): 195 ± 21 nM | effect on seed germination (Orobanche minor): hindered seed germination | inhibition of ShMAX2 binding of ShHTL7 L143Y [1]: did not inhibit | effect on GR24‐dependent interaction of ShHTL7 with ShMAX2 [2]: inhibited | Kd (ShHTL7 [3]): 440 ± 50 nM | protection of ShHTL7 from digestion by proteinase K (ShHTL7 [4]): efficiently protected
